Consider 13 compounds from patent US20260070945A1, “MACROCYCLIC IMMUNOMODULATORS” (Bristol-Myers Squibb Company, priority 2022, published 2026).

*1 amine or outer side, *2 acyl side, *3 side chain or, on linkers, in order; H or OH if unused. Where a SMILES comes first, the peptide text is derived from it. Bridges are numbered along the chain shown (N, C = ends). [ ]: non-standard residue; d: D form. The star is where a group is joined. ξ: configuration not given here. Phe(4-COOH) = N[C@@H](Cc1ccc(C(=O)O)cc1)C(=O)O; Bip = N[C@@H](Cc1ccc(-c2ccccc2)cc1)C(=O)O; γGlu = O=C(O)[C@H](CCC(=O)[*:2])N[*:1]; βAsp = O=C(O)[C@H](CC(=O)[*:2])N[*:1]; aIle = CC[C@@H](C)[C@H](N)C(=O)O; 4Pal = N[C@@H](Cc1ccncc1)C(=O)O; Cha = N[C@@H](CC1CCCCC1)C(=O)O; Cit = NC(=O)NCCC[C@H](N)C(=O)O; Ile(3ξ) = CCC(C)[C@H](N)C(=O)O; Thr(3ξ) = CC(O)[C@H](N)C(=O)O; dOrn = NCCC[C@@H](N)C(=O)O; Carboxymethyl = O=C(O)C*; NMeA = CN[C@@H](C)C(=O)O; dDap = NC[C@@H](N)C(=O)O; Aun = NCCCCCCCCCCC(=O)O; Dab = NCC[C@H](N)C(=O)O; AEEA = NCCOCCOCC(=O)O

In general, IC50 refers to the concentration that gives 50% inhibition.

For this test, the target named is T1, PD-1/PD-L1 interaction (PE-labeled human PD-L1-Ig binding to Jurkat cell line over-expressing human PD-1) (Homo sapiens, UniProt Q15116).
T1 construct: expressed in transfected cells; host or cells: Jurkat
T1 sequence (Q15116 25-288): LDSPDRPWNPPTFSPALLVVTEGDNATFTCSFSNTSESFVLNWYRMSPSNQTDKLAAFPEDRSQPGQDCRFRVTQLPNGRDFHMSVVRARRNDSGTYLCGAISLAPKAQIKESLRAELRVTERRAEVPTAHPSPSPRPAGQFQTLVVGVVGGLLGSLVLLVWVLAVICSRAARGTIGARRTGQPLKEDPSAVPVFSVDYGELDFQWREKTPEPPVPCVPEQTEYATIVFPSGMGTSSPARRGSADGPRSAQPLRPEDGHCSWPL
The test is described as follows: Jurkat-PD-1 Cell Binding High-Content Screening Assay (CBA). Conditions: Jurkat-hPD-1 cells, PE-labeled PD-L1-Ig 20 nM final; read-out: Jurkat HPD1 PDL1 IC50. The method, boiled down: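 Cells 8×10^3/well, DMEM + 10% FCS; cpd 2 h, 37 °C; PE–PD-L1-Ig 20 nM final, 1 h; PFA fix + Hoechst 33342, 3× dPBS wash; high-content imager.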
Turning to `CC(C)C[C@@H]1NC(=O)[C@H](Cc2c[nH]c3ccccc23)NC(=O)[C@H](CC(=O)O)NC(=O)[C@H](Cc2ccc(OCC(=O)O)cc2)NC(=O)[C@H](CCCNC(N)=O)NC(=O)CSC[C@@H](C(=O)N[C@@H](CC(N)=O)C(=O)N[C@@H](CC(=O)NCCOCCOCC(=O)NCCCCCCCCCCC(=O)O)C(=O)O)NC(=O)[C@H](CO)NC(=O)[C@H](C(C)C)NC(=O)[C@H](CC2CCCCC2)NC(=O)[C@H](CC(N)=O)NC(=O)[C@@H](CC(C)C)NC(=O)[C@H](C)N(C)C(=O)[C@H](C(C)C)NC(=O)[C@H](Cc2ccc(-c3ccccc3)cc2)NC1=O` [Example 2026] ({CH2CO}-[Cit]Y(Carboxymethyl)DWL[Bip]V[NMeA][dL]N[Cha]VSCN[βAsp][AEEA][Aun]-OH; thioether N-14), the IC50 is 237 nM.
The same measure for `CC[C@@H](C)[C@@H]1NC(=O)[C@H](Cc2ccc(-c3ccccc3)cc2)NC(=O)[C@H](C(C)C)NC(=O)[C@H](Cc2c[nH]c3ccccc23)NC(=O)[C@H](CC(=O)O)NC(=O)[C@H](Cc2ccc(O)cc2)NC(=O)[C@H](CCCNC(N)=O)NC(=O)CSC[C@@H](C(=O)N[C@H](CCCCN)C(=O)NCCOCCOCC(=O)NCCCCCCCCCCC(=O)O)NC(=O)[C@H](CO)NC(=O)[C@H](C(C)C)NC(=O)[C@H](CC2CCCCC2)NC(=O)[C@H](CCN)NC(=O)[C@@H](CC(C)C)NC(=O)[C@H](C)N(C)C1=O` [Example 2027] ({CH2CO}-[Cit]YDWV[Bip][aIle][NMeA][dL][Dab][Cha]VSC[dK][AEEA][Aun]-OH; thioether N-14): 38.6 nM.
For the compound `CCC(C)[C@@H]1NC(=O)[C@H](Cc2ccc(-c3ccccc3)cc2)NC(=O)[C@H](C(C)C)NC(=O)[C@H](Cc2c[nH]c3ccccc23)NC(=O)[C@H](CC(=O)O)NC(=O)[C@H](Cc2ccc(OCC(=O)O)cc2)NC(=O)[C@H](Cc2ccncc2)NC(=O)CSC[C@@H](C(=O)N[C@H](CC(N)=O)C(=O)NCCOCCOCC(=O)NCCCCCCCCCCC(=O)O)NC(=O)[C@H](CO)NC(=O)[C@H](C(C)C)NC(=O)[C@H](CC2CCCCC2)NC(=O)[C@H](CCN)NC(=O)[C@@H](CC(C)C)NC(=O)[C@H](C)N(C)C1=O` (stereo partly drawn) [Example 2028] ({CH2CO}-[4Pal]Y(Carboxymethyl)DWV[Bip][Ile(3ξ)][NMeA][dL][Dab][Cha]VSC[dN][AEEA][Aun]-OH; thioether N-14), the IC50 amounted to 9.9 nM.
The same measure for `CCC(C)[C@@H]1NC(=O)[C@H](Cc2ccc(-c3ccccc3)cc2)NC(=O)[C@H](C(C)C)NC(=O)[C@H](Cc2c[nH]c3ccccc23)NC(=O)[C@H](CC(=O)O)NC(=O)[C@H](Cc2ccc(OCC(=O)O)cc2)NC(=O)[C@H](C(C)O)NC(=O)CSC[C@@H](C(=O)NCCOCCOCC(=O)N[C@@H](CCCCN)C(=O)NCCCCCCCCCCC(=O)O)NC(=O)[C@H](CO)NC(=O)[C@H](C(C)C)NC(=O)[C@H](CC2CCCCC2)NC(=O)[C@H](CCN)NC(=O)[C@@H](CC(C)C)NC(=O)[C@H](C)N(C)C1=O` (stereo partly drawn) [Example 2030] ({CH2CO}-[Thr(3ξ)]Y(Carboxymethyl)DWV[Bip][Ile(3ξ)][NMeA][dL][Dab][Cha]VSC[AEEA]K[Aun]-OH; thioether N-14): 13.2 nM.
For `CCC(C)[C@@H]1NC(=O)[C@H](Cc2ccc(-c3ccccc3)cc2)NC(=O)[C@H](C(C)C)NC(=O)[C@H](Cc2c[nH]c3ccccc23)NC(=O)[C@H](CC(=O)O)NC(=O)[C@H](Cc2ccc(OCC(=O)O)cc2)NC(=O)[C@H](C(C)O)NC(=O)CSC[C@@H](C(=O)N[C@H](CC(N)=O)C(=O)NCCOCCOCC(=O)NCCCCCCCCCCC(=O)O)NC(=O)[C@H](CO)NC(=O)[C@H](C(C)C)NC(=O)[C@H](CC2CCCCC2)NC(=O)[C@H](CCN)NC(=O)[C@@H](CC(C)C)NC(=O)[C@H](C)N(C)C1=O` (stereo partly drawn) [Example 2031] ({CH2CO}-[Thr(3ξ)]Y(Carboxymethyl)DWV[Bip][Ile(3ξ)][NMeA][dL][Dab][Cha]VSC[dN][AEEA][Aun]-OH; thioether N-14), the IC50 turned out to be 9.4 nM.
As to `CCC(C)[C@@H]1NC(=O)[C@H](Cc2ccc(-c3ccccc3)cc2)NC(=O)[C@H](C(C)C)NC(=O)[C@H](Cc2c[nH]c3ccccc23)NC(=O)[C@H](CC(=O)O)NC(=O)[C@H](Cc2ccc(OCC(=O)O)cc2)NC(=O)[C@H](Cc2c[nH]cn2)NC(=O)CSC[C@@H](C(=O)NCCOCCOCC(=O)N[C@@H](CCC(=O)NCCOCCOCC(=O)N[C@@H](CCCCN)C(=O)NCCCCCCCCCCC(=O)O)C(=O)O)NC(=O)[C@H](CO)NC(=O)[C@H](C(C)C)NC(=O)[C@H](CC2CCCCC2)NC(=O)[C@H](CCN)NC(=O)[C@@H](CC(C)C)NC(=O)[C@H](C)N(C)C1=O` (stereo partly drawn) [Example 2032] ({CH2CO}-HY(Carboxymethyl)DWV[Bip][Ile(3ξ)][NMeA][dL][Dab][Cha]VSC[AEEA][γGlu][AEEA]K[Aun]-OH; thioether N-14), the half-inhibitory concentration (IC50) amounted to 10.4 nM.
In the case of `CCC(C)[C@@H]1NC(=O)[C@H](Cc2ccc(-c3ccccc3)cc2)NC(=O)[C@H](C(C)C)NC(=O)[C@H](Cc2c[nH]c3ccccc23)NC(=O)[C@H](CC(=O)O)NC(=O)[C@H](Cc2ccc(OCC(=O)O)cc2)NC(=O)[C@H](Cc2ccncc2)NC(=O)CSC[C@@H](C(=O)NCCOCCOCC(=O)N[C@@H](CCCCN)C(=O)NCCCCCCCCCCC(=O)O)NC(=O)[C@H](CO)NC(=O)[C@H](C(C)C)NC(=O)[C@H](CC2CCCCC2)NC(=O)[C@H](CCN)NC(=O)[C@@H](CC(C)C)NC(=O)[C@H](C)N(C)C1=O` (stereo partly drawn) [Example 2033] ({CH2CO}-[4Pal]Y(Carboxymethyl)DWV[Bip][Ile(3ξ)][NMeA][dL][Dab][Cha]VSC[AEEA]K[Aun]-OH; thioether N-14) it was 19.2 nM; in that of `CC[C@@H](C)[C@@H]1NC(=O)[C@H](Cc2ccc(-c3ccccc3)cc2)NC(=O)[C@H](CC(C)C)NC(=O)[C@H](Cc2c[nH]c3ccccc23)NC(=O)[C@H](CC(=O)O)NC(=O)[C@H](Cc2ccc(C(=O)O)cc2)NC(=O)[C@H](Cc2ccc(OCC(=O)O)cc2)NC(=O)CSC[C@@H](C(=O)NCCOCCOCC(=O)N[C@H](CCCN)C(=O)NCCCCCCCCCCC(=O)O)NC(=O)[C@H](CO)NC(=O)[C@H](C(C)C)NC(=O)[C@H](CC2CCCCC2)NC(=O)[C@H](CCN)NC(=O)[C@@H](CC(C)C)NC(=O)[C@H](C)N(C)C1=O` [Example 2034] ({CH2CO}-Y(Carboxymethyl)[Phe(4-COOH)]DWL[Bip][aIle][NMeA][dL][Dab][Cha]VSC[AEEA][dOrn][Aun]-OH; thioether N-14), 16.9 nM.
`CC(C)C[C@@H]1NC(=O)[C@H](Cc2c[nH]c3ccccc23)NC(=O)[C@H](CC(=O)O)NC(=O)[C@H](Cc2ccc(O)cc2)NC(=O)[C@H](Cc2ccccc2)NC(=O)CSC[C@@H](C(=O)N[C@@H](C)C(=O)N[C@H](CCCCN)C(=O)NCCCCCCCCCCC(=O)O)NC(=O)[C@H](CO)NC(=O)[C@H](C(C)C)NC(=O)[C@H](CC(C)C)NC(=O)[C@H](CCN)NC(=O)[C@@H](CC(C)C)NC(=O)[C@H](C)N(C)C(=O)[C@H](C(C)C)NC(=O)[C@H](Cc2ccc(-c3ccccc3)cc2)NC1=O` [Example 2035] ({CH2CO}-FYDWL[Bip]V[NMeA][dL][Dab]LVSCA[dK][Aun]-OH; thioether N-14): the IC50 is 21.9 nM.
As to `CC[C@@H](C)[C@@H]1NC(=O)[C@H](Cc2ccc(-c3ccccc3)cc2)NC(=O)[C@H](C(C)C)NC(=O)[C@H](Cc2c[nH]c3ccccc23)NC(=O)[C@H](CC(=O)O)NC(=O)[C@H](Cc2ccc(O)cc2)NC(=O)[C@H](Cc2ccncc2)NC(=O)CSC[C@@H](C(=O)N[C@@H](CCN)C(=O)NCCCCCCCCCCC(=O)O)NC(=O)[C@H](C(C)O)NC(=O)[C@H](C(C)C)NC(=O)[C@H](CC2CCCCC2)NC(=O)[C@H](CCN)NC(=O)[C@@H](CC(C)C)NC(=O)[C@H](C)N(C)C1=O` (stereo partly drawn) [Example 2036] ({CH2CO}-[4Pal]YDWV[Bip][aIle][NMeA][dL][Dab][Cha]V[Thr(3ξ)]C[Dab][Aun]-OH; thioether N-14), the IC50 is 43.9 nM.
In the case of `CC(C)C[C@@H]1NC(=O)[C@H](Cc2c[nH]c3ccccc23)NC(=O)[C@H](CC(=O)O)NC(=O)[C@H](Cc2ccc(OCC(=O)O)cc2)NC(=O)[C@H](Cc2ccccc2)NC(=O)CSC[C@@H](C(=O)N[C@H](CN)C(=O)NCCOCCOCC(=O)NCCCCCCCCCCC(=O)O)NC(=O)[C@H](Cc2c[nH]cn2)NC(=O)[C@H](C(C)C)NC(=O)[C@H](CC(C)C)NC(=O)[C@H](CCN)NC(=O)[C@@H](CC(C)C)NC(=O)[C@H](C)N(C)C(=O)[C@H](C(C)C)NC(=O)[C@H](Cc2ccc(-c3ccccc3)cc2)NC1=O` [Example 2037] ({CH2CO}-FY(Carboxymethyl)DWL[Bip]V[NMeA][dL][Dab]LVHC[dDap][AEEA][Aun]-OH; thioether N-14) it was 29 nM; in that of `CCC(C)[C@@H]1NC(=O)[C@H](Cc2ccc(-c3ccccc3)cc2)NC(=O)[C@H](CC(C)C)NC(=O)[C@H](Cc2c[nH]c3ccccc23)NC(=O)[C@H](CC(=O)O)NC(=O)[C@H](Cc2ccc(OCC(=O)O)cc2)NC(=O)[C@H](Cc2ccc(OCC(=O)O)cc2)NC(=O)CSC[C@@H](C(=O)N[C@@H](CCN)C(=O)NCCOCCOCC(=O)NCCCCCCCCCCC(=O)O)NC(=O)[C@H](CO)NC(=O)[C@H](C(C)C)NC(=O)[C@H](CC(C)C)NC(=O)[C@H](CC(N)=O)NC(=O)[C@@H](CC(C)C)NC(=O)[C@H](C)N(C)C1=O` (stereo partly drawn) [Example 2038] ({CH2CO}-Y(Carboxymethyl)Y(Carboxymethyl)DWL[Bip][Ile(3ξ)][NMeA][dL]NLVSC[Dab][AEEA][Aun]-OH; thioether N-14), 29.6 nM.
The same measure for `CC(C)C[C@@H]1NC(=O)[C@H](Cc2c[nH]c3ccccc23)NC(=O)[C@H](CC(=O)O)NC(=O)[C@H](Cc2ccc(OCC(=O)O)cc2)NC(=O)[C@H](Cc2ccc(OCC(=O)O)cc2)NC(=O)CSC[C@@H](C(=O)N[C@@H](CCN)C(=O)NCCOCCOCC(=O)NCCCCCCCCCCC(=O)O)NC(=O)[C@H](CO)NC(=O)[C@H](C(C)C)NC(=O)[C@H](CC(C)C)NC(=O)[C@H](CCN)NC(=O)[C@@H](CC(C)C)NC(=O)[C@H](C)N(C)C(=O)[C@H](C(C)C)NC(=O)[C@H](Cc2ccc(-c3ccccc3)cc2)NC1=O` [Example 2039] ({CH2CO}-Y(Carboxymethyl)Y(Carboxymethyl)DWL[Bip]V[NMeA][dL][Dab]LVSC[Dab][AEEA][Aun]-OH; thioether N-14): 879 nM.
